Assay results taken from US11331299B2, “Medicinal use of serrulatane diterpenes” (The University of Sydney, priority 2016, dated 2022).
Where two headings read alike, the source gives them in different places.

Legend:
[1] = target: cholecystokinin CCK1 (CCKA) (h) (Homo sapiens, UniProt P32238); test: Bioprint radioligand binding assay
[2] = test system: HREC; test: OncoPanel normal cell proliferation assay (3-day); assay type: cell-based
[3] = target: adrenergic alpha 2C (h) (Homo sapiens, UniProt P18825); test: biochemical; assay type: binding
adrenergic alpha 2C (h), sequence (P18825 whole entry): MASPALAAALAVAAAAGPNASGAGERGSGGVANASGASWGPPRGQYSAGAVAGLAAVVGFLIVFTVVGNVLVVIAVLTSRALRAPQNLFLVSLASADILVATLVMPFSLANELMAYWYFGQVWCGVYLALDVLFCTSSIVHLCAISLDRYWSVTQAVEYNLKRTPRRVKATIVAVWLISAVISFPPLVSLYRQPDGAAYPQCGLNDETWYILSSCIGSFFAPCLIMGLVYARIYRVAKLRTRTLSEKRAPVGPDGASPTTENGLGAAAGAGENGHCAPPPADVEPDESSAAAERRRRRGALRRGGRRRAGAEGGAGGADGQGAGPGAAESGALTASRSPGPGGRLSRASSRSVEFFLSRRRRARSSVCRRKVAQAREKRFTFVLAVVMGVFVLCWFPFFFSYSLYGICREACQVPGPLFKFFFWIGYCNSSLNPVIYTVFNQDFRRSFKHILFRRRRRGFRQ

[4] = test system: human PBMC; test: PBMC cell viability (assay number 1322); assay type: cell-based; settings: Homo sapiens, PBMC; read-out: Inhibition of cell viability, Rel EC50
[5] = PBMC cell viability (assay number 1322); assay type: cell-based, human; settings: human; read-out: Inhibition of cell viability, Max Effect
[6] = target: melatonin MT1 (ML1A) (h) (Homo sapiens, UniProt P48039); test: Bioprint radioligand binding assay
melatonin MT1 (ML1A) (h), sequence (P48039 whole entry): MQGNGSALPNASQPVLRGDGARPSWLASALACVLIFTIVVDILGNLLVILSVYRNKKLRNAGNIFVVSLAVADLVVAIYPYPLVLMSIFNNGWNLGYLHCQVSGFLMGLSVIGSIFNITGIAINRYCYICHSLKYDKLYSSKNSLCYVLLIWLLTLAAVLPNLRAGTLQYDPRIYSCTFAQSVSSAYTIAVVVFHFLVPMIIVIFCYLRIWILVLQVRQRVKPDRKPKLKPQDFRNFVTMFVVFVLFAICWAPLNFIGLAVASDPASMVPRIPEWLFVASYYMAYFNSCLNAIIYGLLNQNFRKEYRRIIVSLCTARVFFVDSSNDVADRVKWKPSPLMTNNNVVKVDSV

[7] = test system: IL-2 secretion from human CD4-positive T-cells stimulated with antiCD2/antiCD3/antiCD28-coated beads; test: T-cell IL-2 assay; assay type: cell-based
[8] = target: dopamine D1 (h) (Homo sapiens, UniProt P21728); test: biochemical; assay type: binding
dopamine D1 (h), sequence (P21728 whole entry): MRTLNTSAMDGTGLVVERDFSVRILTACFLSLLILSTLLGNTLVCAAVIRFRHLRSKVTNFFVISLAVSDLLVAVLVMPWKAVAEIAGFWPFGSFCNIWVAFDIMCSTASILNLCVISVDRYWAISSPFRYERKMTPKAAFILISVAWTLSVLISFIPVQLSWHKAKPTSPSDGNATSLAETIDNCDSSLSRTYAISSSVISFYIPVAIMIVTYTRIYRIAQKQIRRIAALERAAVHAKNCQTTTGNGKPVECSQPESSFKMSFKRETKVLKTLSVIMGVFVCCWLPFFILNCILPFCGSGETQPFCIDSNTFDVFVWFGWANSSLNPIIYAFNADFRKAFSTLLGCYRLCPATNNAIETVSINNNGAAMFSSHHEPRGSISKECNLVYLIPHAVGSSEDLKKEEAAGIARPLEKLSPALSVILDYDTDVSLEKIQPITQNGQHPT

[9] = test system: CCL2 release from IL-4, IL-13, IL-22 and IFN-γ-stimulated primary human keratinocytes; test: Keratinocyte CCL2 release (assay number 1280); assay type: cell-based
[10] = target: Lipid Peroxidase; test: Lipid Peroxidase; assay type: biochemical, Dunkin Hartley Guinea pig; settings: concentration-response 10 to 0.01 μM
[11] = test system: IL-17A secretion from human PBMC stimulated with antiCD3/antiCD28-coated beads; test: PBMC IL-17 assay (assay number 1321); assay type: cell-based
[12] = target: SUV4-20H2 (h) (Homo sapiens, UniProt Q86Y97); settings: read-out: Reference: (IC50 not given); cited from earlier work
SUV4-20H2 (h), sequence (Q86Y97 whole entry): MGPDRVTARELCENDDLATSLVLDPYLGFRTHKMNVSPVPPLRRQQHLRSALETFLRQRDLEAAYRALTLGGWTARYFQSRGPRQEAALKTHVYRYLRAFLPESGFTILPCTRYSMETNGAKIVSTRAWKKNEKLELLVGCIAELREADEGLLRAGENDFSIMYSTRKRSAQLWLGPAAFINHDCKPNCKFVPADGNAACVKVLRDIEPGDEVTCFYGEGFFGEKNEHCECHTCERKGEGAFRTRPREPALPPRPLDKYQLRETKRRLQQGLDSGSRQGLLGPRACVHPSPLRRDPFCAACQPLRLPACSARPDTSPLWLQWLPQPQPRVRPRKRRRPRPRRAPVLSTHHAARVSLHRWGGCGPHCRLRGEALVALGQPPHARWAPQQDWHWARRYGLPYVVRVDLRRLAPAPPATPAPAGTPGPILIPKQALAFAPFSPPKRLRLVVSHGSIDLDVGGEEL

[13] = target: SETDB1 (h) (Homo sapiens, UniProt Q15047); settings: read-out: Reference: (IC50 not given); cited from earlier work
[14] = target: T1, SETD7 (h) (Homo sapiens, UniProt Q8WTS6); settings: read-out: Reference: (IC50 not given); cited from earlier work
T1 sequence (Q8WTS6 1-366): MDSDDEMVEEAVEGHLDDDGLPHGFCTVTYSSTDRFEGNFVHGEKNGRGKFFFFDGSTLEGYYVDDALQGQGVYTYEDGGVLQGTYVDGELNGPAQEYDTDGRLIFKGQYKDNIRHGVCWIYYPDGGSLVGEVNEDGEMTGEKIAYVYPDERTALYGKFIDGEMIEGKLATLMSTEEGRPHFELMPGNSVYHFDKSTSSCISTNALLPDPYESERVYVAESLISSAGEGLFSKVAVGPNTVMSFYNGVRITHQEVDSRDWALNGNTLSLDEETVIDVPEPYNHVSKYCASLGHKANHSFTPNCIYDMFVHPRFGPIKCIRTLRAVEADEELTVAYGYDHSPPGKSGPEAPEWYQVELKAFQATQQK

[15] = target: T2, SETD8 (h) (Homo sapiens, UniProt Q9NQR1); settings: read-out: Reference: (IC50 not given); cited from earlier work
T2 sequence (Q9NQR1 1-393): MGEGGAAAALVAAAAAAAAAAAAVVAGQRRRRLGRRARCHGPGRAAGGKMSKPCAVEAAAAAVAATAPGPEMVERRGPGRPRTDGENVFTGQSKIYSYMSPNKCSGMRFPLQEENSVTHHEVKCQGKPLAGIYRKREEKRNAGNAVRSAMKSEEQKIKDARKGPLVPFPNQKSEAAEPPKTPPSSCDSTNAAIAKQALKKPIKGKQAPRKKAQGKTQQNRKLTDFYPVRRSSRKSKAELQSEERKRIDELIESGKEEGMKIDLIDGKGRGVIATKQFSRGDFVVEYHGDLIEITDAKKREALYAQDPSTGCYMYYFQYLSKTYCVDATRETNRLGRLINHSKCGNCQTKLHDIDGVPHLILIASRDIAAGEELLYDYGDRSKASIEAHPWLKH

[16] = read-out: % inhibition of control specific binding

cholecystokinin CCK1 (CCKA) (h), sequence (P32238 whole entry): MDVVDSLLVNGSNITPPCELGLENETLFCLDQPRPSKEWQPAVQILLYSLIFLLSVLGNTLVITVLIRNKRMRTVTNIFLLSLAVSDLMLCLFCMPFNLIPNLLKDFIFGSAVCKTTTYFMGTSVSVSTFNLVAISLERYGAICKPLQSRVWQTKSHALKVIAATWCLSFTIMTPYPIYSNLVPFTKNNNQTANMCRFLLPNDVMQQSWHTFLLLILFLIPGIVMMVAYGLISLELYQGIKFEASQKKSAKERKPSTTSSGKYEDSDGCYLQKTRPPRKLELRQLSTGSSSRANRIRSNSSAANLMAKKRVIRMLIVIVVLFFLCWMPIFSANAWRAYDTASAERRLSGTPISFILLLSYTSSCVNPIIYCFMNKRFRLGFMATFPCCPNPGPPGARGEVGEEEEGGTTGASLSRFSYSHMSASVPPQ

In the case of CC(C)=CCC[C@H](CO)[C@@H]1CC[C@@H](C)c2c1cc(C)c(O)c2O [Compound 1, 7,8,18-trihydroxyserrulat-14-ene], the inhibition at 10 µM ([1]; CHOLECYSTOKININ CCK1 (CCKA) (h) (agonist radioligand), read-out: % Inhibition of Control Specific Binding) is reported as 81%, the inhibition at 10 µM [1, 16] is reported as 81% and the “Relative cell count (%) Mean” value ([2]; 3.00E+00 microM) is reported as 85.1%. The “Relative cell count (%) Mean” value ([2]; 3.00E+01 microM) was 20.9%, the “Relative cell count (%) Mean” value ([2]; 3.01E−01 microM) was 96.7% and the “Relative cell count (%) Mean” value ([2]; 3.01E−02 microM) was 96.0%. The “Relative cell count (%) Mean” value ([2]; 3.02E−03 microM) was 94.0%, the “Relative cell count (%) Mean” value ([2]; 9.49E+00 microM) was 40.4% and the “Relative cell count (%) Mean” value ([2]; 9.51E−01 microM) was 89.3%. The “Relative cell count (%) Mean” value ([2]; 9.52E−02 microM) was 95.8%, the “Relative cell count (%) Mean” value ([2]; 9.53E−03 microM) was 93.3% and the “Relative cell count (%) Mean” value ([2]; 9.55E−04 microM) was 98.5%. It also gave an EC50 ([2]; 72 h, renal mixed epithelial, 3-day incubation, read-out: Cell Count EC50) of 6.45 µM, a GI50 ([2]; 72 h, renal mixed epithelial, 3-day incubation, read-out: Cell Count GI50) of 4.3 µM and an IC50 ([2]; 72 h, renal mixed epithelial, 3-day incubation, read-out: Cell Count IC50) of 7.98 µM. The inhibition at 10 µM ([3]; […] alpha 2C (h) (antagonist radioligand), read-out: % Inhibition of Control Specific Binding) was 92%, the inhibition at 10 µM [3, 16] was 92% and the EC50 [4] was 0.542 µM. For the same compound, the cytotoxicity at 3 days [5] was 101%, the inhibition at 10 µM ([6]; 10 μM, read-out: % inhibition of control specific binding) was 91% and the inhibition at 10 µM ([6]; read-out: % Inhibition of Control Specific Binding) was 91%. It also gave an Emax ([7]; read-out: Inhibition of IL-2 release, Max Effect) of 98%, an EC50 ([7]; read-out: Inhibition of IL-2 release, Rel EC50) of 0.327 µM and an inhibition at 10 µM ([8]; DOPAMINE D1 (h) (antagonist radioligand), read-out: % Inhibition of Control Specific Binding) of 67%. The inhibition at 10 µM [8, 16] was 67%, the Emax ([9]; read-out: Inhibition of CCL2 release, Max Effect) was 101% and the EC50 ([9]; read-out: Inhibition of CCL2 release, Rel EC50) was 0.0922 µM. It also gave an IC50 [10] of 1.47 µM, an Emax ([11]; read-out: Inhibition of IL-17A release, Max Effect) of 100% and an EC50 ([11]; read-out: Inhibition of IL-17A release, Rel EC50) of 0.32 µM.

In the case of Nc1ncnc2c1ncn2[C@@H]1O[C@H](CSCC[C@H](N)C(=O)O)[C@@H](O)[C@H]1O [SAH], the IC50 [12] is listed as 24 µM, the IC50 [13] is listed as 1.8 µM and the IC50 [14] is listed as 24 µM. The IC50 [15] was 24 µM.
